Where two headings read alike, the source gives them in different places.
Legend:
mtOXPHOS transcripts = format: cell-based, mouse
nuOXPHOS transcripts = format: cell-based, mouse
reactive oxygen species = format: cell-based, mouse
OXPHOS gene expression = format: cell-based, mouse
cytochrome c = format: cell-based, mouse
[1] = tested on: cellular dehydrogenase activity
[2] = tested on: mitochondrial membrane potential; format: cell-based, mouse
[3] = composite Z-score vs DMSO wells, Conc 20 μM
[4] = composite Z-score vs mock-treated (DMSO) wells, Conc 20 μM
[5] = composite Z-score vs mock-treated (DMSO) wells, concentration of each compound in μM
[6] = 20 μM, composite Z-score vs DMSO
[7] = composite Z-score vs DMSO, Conc 20 μM
[8] = 14.26 μM, composite Z-score vs DMSO

CCOC(=O)[N-]c1cn(N2CCOCC2)n[o+]1 [molsidomine]
mitoOX (mtOXPHOS transcripts; [3]): 0.106 | nucOX (nuOXPHOS transcripts; [3]): 0.331 | ROS (reactive oxygen species; [3]): −0.398 | GE-HTS (OXPHOS gene expression; [3]): 0.250 | cyt c (cytochrome c): −0.533 | cyt c (cytochrome c; [3]): 0.339 | MTT [1, 3]: −0.651 | ΔΨm [2, 3]: −0.537 | Viability (C2C12 myotubes; [3]): −0.665

CC(=O)O[C@@H]1C[C@H]2C(C)(C)C(=O)CC[C@]2(C)[C@H]2CC[C@@]3(C)[C@H](c4ccoc4)OC(=O)[C@H]4O[C@]43[C@@]21C [dihydrogedunin]
mitoOX (mtOXPHOS transcripts; [4]): 0.323 | nucOX (nuOXPHOS transcripts; [4]): 0.613 | ROS (reactive oxygen species; [4]): −0.690 | GE-HTS (OXPHOS gene expression; [4]): 0.575 | cyt c (cytochrome c; [4]): 0.460 | MTT [1, 4]: −0.017 | ΔΨm [2, 4]: 1.079 | Viability (C2C12 myotubes; [4]): 0.637

COc1cc2occ(-c3cc4c(cc3OC)OCO4)c(=O)c2cc1OC [milldurone]
mitoOX (mtOXPHOS transcripts; [5]): −0.215 | nucOX (nuOXPHOS transcripts; [5]): 0.605 | ROS (reactive oxygen species; [5]): 0.680 | GE-HTS (OXPHOS gene expression; [5]): 0.343 | cyt c (cytochrome c; [5]): 0.465 | MTT [1, 5]: −0.713 | ΔΨm [2, 5]: −0.569 | Viability (C2C12 myotubes; [5]): −0.401

C=C[C@H]1CN2CC[C@H]1C[C@H]2[C@H](OC(=O)OCC)c1ccnc2ccc(OC)cc12 [quinine ethyl carbonate]
mitoOX (mtOXPHOS transcripts; [6]): −1.297 | nucOX (nuOXPHOS transcripts; [6]): −1.003 | ROS (reactive oxygen species; [6]): 0.401 | GE-HTS (OXPHOS gene expression; [6]): −1.190 | cyt c (cytochrome c; [6]): 0.822 | MTT [1, 6]: −0.071 | ΔΨm [2, 6]: −0.661 | Viability (C2C12 myotubes; [6]): −0.167

CCCC(=O)Nc1ccc(OCC(O)CNC(C)C)c(C(C)=O)c1 (centres unmarked) [acebutolol]
mitoOX (mtOXPHOS transcripts; [3]): −0.254 | nucOX (nuOXPHOS transcripts; [3]): −0.591 | ROS (reactive oxygen species; [3]): 1.061 | GE-HTS (OXPHOS gene expression; [3]): −0.511 | cyt c (cytochrome c): −0.884 | cyt c (cytochrome c; [3]): 0.214 | MTT [1, 3]: −0.548 | ΔΨm [2, 3]: 0.016 | Viability (C2C12 myotubes; [3]): −0.271

CC(C)[C@@H](C)C=C[C@@H](C)[C@H]1CC[C@H]2C3=CCC4CC(=O)CC[C@]4(C)[C@H]3CC[C@]12C (some centres unmarked) [ergosta-7,22-dien-3-one]
mitoOX (mtOXPHOS transcripts; [7]): −0.415 | nucOX (nuOXPHOS transcripts; [7]): −0.764 | ROS (reactive oxygen species; [7]): 0.912 | GE-HTS (OXPHOS gene expression; [7]): −0.708 | cyt c (cytochrome c; [7]): 0.221 | MTT [1, 7]: −2.474 | ΔΨm [2, 7]: −0.544 | Viability (C2C12 myotubes; [7]): −0.892

OC(CCN1CCCCC1)(c1ccccc1)C1CC2C=CC1C2 (centres unmarked) [biperiden]
mitoOX (mtOXPHOS transcripts): −1.312 | nucOX (nuOXPHOS transcripts): −0.496 | ROS (reactive oxygen species): 2.725 | GE-HTS (OXPHOS gene expression): −0.817 | cyt c (cytochrome c): 0.053 | MTT [1]: −0.886 | ΔΨm [2]: −0.517 | Viability (C2C12 myotubes): 0.740

C[C@@H]1NCCc2cc(O)c(O)cc21 [salsolinol]
mitoOX (mtOXPHOS transcripts; [5]): −0.397 | nucOX (nuOXPHOS transcripts; [5]): −0.197 | ROS (reactive oxygen species; [5]): −0.248 | GE-HTS (OXPHOS gene expression; [5]): −0.284 | cyt c (cytochrome c; [5]): −0.994 | MTT [1, 5]: −1.113 | ΔΨm [2, 5]: −0.160 | Viability (C2C12 myotubes; [5]): −1.127

CC(=O)Nc1ccc(OC(=O)c2ccccc2O)cc1 [acetaminosalol]
mitoOX (mtOXPHOS transcripts; [3]): −0.060 | nucOX (nuOXPHOS transcripts; [3]): 0.145 | ROS (reactive oxygen species; [3]): 0.308 | GE-HTS (OXPHOS gene expression; [3]): 0.083 | cyt c (cytochrome c; [3]): 0.465 | MTT [1, 3]: −0.142 | ΔΨm [2, 3]: −0.707 | Viability (C2C12 myotubes; [3]): 0.144

O=C(CC[N+](=O)[O-])OC[C@H]1O[C@@H](O)[C@H](OC(=O)CC[N+](=O)[O-])[C@@H](OC(=O)CC[N+](=O)[O-])[C@@H]1OC(=O)CC[N+](=O)[O-] [endecaphyllin X]
mitoOX (mtOXPHOS transcripts; [5]): −0.741 | nucOX (nuOXPHOS transcripts; [5]): −0.566 | ROS (reactive oxygen species; [5]): −0.292 | GE-HTS (OXPHOS gene expression; [5]): −0.660 | cyt c (cytochrome c; [5]): −0.219 | MTT [1, 5]: −1.007 | ΔΨm [2, 5]: 0.142 | Viability (C2C12 myotubes; [5]): 0.158

CCN(CC)CCNC(=O)COc1ccc(OC)cc1 [mefexamide]
mitoOX (mtOXPHOS transcripts; [8]): 0.009 | mitoOX (mtOXPHOS transcripts; [6]): −0.101 | nucOX (nuOXPHOS transcripts; [8]): −0.498 | nucOX (nuOXPHOS transcripts; [6]): −0.253 | ROS (reactive oxygen species; [8]): 1.172 | ROS (reactive oxygen species; [6]): 0.837 | GE-HTS (OXPHOS gene expression; [8]): −0.340 | GE-HTS (OXPHOS gene expression; [6]): −0.215 | cyt c (cytochrome c; [8]): 0.129 | cyt c (cytochrome c; [6]): −0.257 | MTT [1, 8]: −1.363 | MTT [1, 6]: −1.270 | ΔΨm [2, 8]: −0.719 | ΔΨm [2, 6]: −0.643 | Viability (C2C12 myotubes; [8]): −0.541 | Viability (C2C12 myotubes; [6]): −2.120

From patent US20090143279A1 (priority 2007, published 2009)
